Results taken from patent publication US7718664B2, “Anti-itching agent” (Toray Industries, Inc., priority 2004, dated 2010).
Structures can show the parent of a compound that is named as a salt.

Legend:
Male ddY mice = experiment: Inhibitory effect of scratching behavior induced by Substance-P; format: in vivo, mouse; settings: test drug sc 30 minutes before intradermal Substance-P, scratching counted for 30 minutes
Description: Male ddY mice were purchased when they were 4 weeks old, and used in the experiments when they became 5 weeks old after acclimation. One day before experiment, each mouse had hair on the rostral back skin clipped with a hair clipper. Each of test drugs was dissolved in 10% DMSO. Either the test drug or vehicle was administered subcutaneously into the rostral back of the mouse, and 30 minutes later, Substance-P (250 nmom/site) dissolved in PBS (phosphate buffered saline) was administered intradermally into the hair-clipped skin at a dose of about 50 μL. Immediately thereafter, each mouse was put into a cage for observation (10*14*22 cm), and the subsequent behavior of each mouse was recorded by an unattended video camera for 30 minutes. The video tape was replayed, and the number of times that the mouse scratched at or around the Substance-P-administered site with its hind limb was counted. In the experiment, each group consisted of 8 mice. In cases where there was a statistically significant difference in the mean number of scratching between the solvent-administered group and the test drug-administered group, the test drug was judged to have an antipruritic effect. The results are shown in terms of the predicted administration dosage at which the number of scratching was reduced to half of that in the solvent-administered group (Table 5).

[1] = in vivo; cited from earlier work
[2] = epidurally or intrathecally administered; cited from earlier work

SMILES	ED50 (predicted administration dosage at which the number of scratching was reduced to half of that in the solvent-administered group) (Male ddY mice)	other results
O=C1c2ccccc2S(=O)(=O)N1[C@@H]1CC[C@@]2(O)[C@H]3Cc4ccc(O)c5c4[C@@]2(CCN3CC2CC2)[C@H]1O5 [Compound 4, [N-(17-cyclopropylmethyl)-4,5α-epoxy-3,14-dihydroxy-morphinan-6β-yl]-O-sulfonebenzimide tartaric acid salt]	0.0081 mg/kg, sc	
O=C1C2=C(CCCC2)C(=O)N1[C@@H]1CC[C@@]2(O)[C@H]3Cc4ccc(O)c5c4[C@@]2(CCN3CC2CC2)[C@H]1O5 [Compound 3, N-[(17-cyclopropylmethyl)-4,5α-epoxy-3,14-dihydroxy-morphinan-6β-yl]-3,4,5,6-tetrahydrophthalimide tartaric acid salt]	0.0033 mg/kg, sc	
O=C1c2ccccc2CN1[C@@H]1CC[C@@]2(O)[C@H]3Cc4ccc(O)c5c4[C@@]2(CCN3CC2CC2)[C@H]1O5 [Compound 5, 2-[(17-cyclopropylmethyl)-4,5α-epoxy-3,14-dihydroxy-morphinan-6β-yl]-2,3-dihydro-isoindole-1-one tartaric acid salt]	0.015 mg/kg, sc	
C=C1CC[C@@]2(O)[C@H]3Cc4ccc(O)c5c4[C@@]2(CCN3CC2CC2)[C@H]1O5 [nalmefene]		effect on severe pruritus in cholestasia with hepathopathy [1]: suppressed
O=C1c2ccccc2C(=O)N1[C@@H]1CC[C@@]2(O)[C@H]3Cc4ccc(O)c5c4[C@@]2(CCN3CC2CC2)[C@H]1O5 [Compound 6, N-[(17-cyclopropylmethyl)-4,5α-epoxy-3,14-dihydroxy-morphinan-6β-yl]-phthalimide]	0.0029 mg/kg, sc	
CN1CC[C@]23c4c5ccc(O)c4O[C@H]2[C@@H](O)C=C[C@H]3[C@H]1C5 [morphine]		induction of pruritus [2]: induced
C=CCN1CC[C@]23c4c5ccc(O)c4O[C@H]2[C@H](N2C(=O)c4ccccc4C2=O)CC[C@@]3(O)[C@H]1C5 [Compound 2, N-[(17-allyl)-4,5α-epoxy-3,14-dihydroxy-morphinan-6β-yl]-phthalimide tartaric acid salt]	0.32 mg/kg, sc	
CN(C(=O)c1ccccc1)[C@@H]1CC[C@@]2(O)[C@H]3Cc4ccc(O)c5c4[C@@]2(CCN3CC2CC2)[C@H]1O5 [Compound 7, 17-cyclopropylmethyl-4,5α-epoxy-3,14-dihydroxy-6β-(N-methylbenzamido)-morphinan hydrochloric acid salt, reference compound]	0.55(Reference Example) mg/kg, sc	
O=C1c2ccccc2C(=O)N1[C@@H]1CC[C@@]2(O)[C@H]3Cc4ccc(O)c5c4[C@@]2(CCN3CC2CC2)[C@H]1O5 [Compound 1, N-[(17-cyclopropylmethyl)-4,5α-epoxy-3,14-dihydroxy-morphinan-6β-yl]-phthalimide hydrochloric acid salt]	0.0034 mg/kg, sc	
